Values of other authors in PubChem BioAssay AID1259409 (Chemical Carcinogenesis Research Information System (CCRIS), 2018).

System: rodent chemically induced tumor inhibition, incidence and multiplicity
Experiment: CCRIS tumor inhibitor studies
Details: Dose [Inhibitor]: 0, Route [Inhibitor]: ORAL, Species: RAT, Promoter: NONE USED

SMILES: C[C@]12CC[C@H](O)CC1=CC[C@@H]1[C@@H]2CC[C@]2(C)C(=O)CC[C@@H]12
- tumour outcome (control, treated, inhibition, significance) (Carcinogen: DIETHYLNITROSAMINE, 55-18-5, N-METHYL-N-NITROSOUREA, 684-93-5, N-BUTYL-N-(4-HYDROXYBUTYL)NITROSAMINE, 3817-11-6, 1,2-DIM, Carcinogen: DIETHYLNITROSAMINE, 55-18-5, N-METHYL-N-NITROSOUREA, 684-93-5, N-BUTYL-N-(4-HYDROXYBUTYL)NITROSAMINE, 3817-11-6, 1,2-DIM, 0.3% IND DIET FOR 23 WK BEGINNING 1 WK POST CARCINOGEN TREATMENT (STUDY DURATION: 28 WK), Strain/Sex: F344/MALE, Target Tissue: Type of Lesion: URINARY BLADDER: PAPILLOMA, Dose [Carcinogen]: 100 MG/KG BW DEN ONCE, 20 MG/KG BW MNU ONCE ON DAYS 6,9, AND 12, 0.05% BBN IN DRINKING WATER FOR FIRST TWO WK, 40 MG/KG, Dose [Carcinogen]: 100 MG/KG BW DEN ONCE, 20 MG/KG BW MNU ONCE ON DAYS 6,9, AND 12, 0.05% BBN IN DRINKING WATER FOR FIRST TWO WK, 40 MG/KG): 2/20 (10%), 1/20 (5%), 50%, not significant
- outcome (Carcinogen: DIETHYLNITROSAMINE, 55-18-5, N-METHYL-N-NITROSOUREA, 684-93-5, N-BUTYLY-N-(4-HYDROXYBUTYL)NITROSAMINE, 3817-11-6, 1,2-DI, Carcinogen: DIETHYLNITROSAMINE, 55-18-5, N-METHYL-N-NITROSOUREA, 684-93-5, N-BUTYLY-N-(4-HYDROXYBUTYL)NITROSAMINE, 3817-11-6, 1,2-DI, 0.3% IN DIET FOR 23 WK BEGINNING 1 WK POST CARCINOGEN TREATMENT (STUDY DURATION: 28 WK), Strain/Sex: F344/MALE, Target Tissue: Type of Lesion: LIVER: CARCINOMA, Dose [Carcinogen]: 100 MG/KG BW DEN ONCE, 20 MG/KG BW MNU ONCE ON DAYS 6,9, AND 12, 0.05% BBN IN DRINKING WATER FOR FIRST TWO WK, 40 MG/KG, Dose [Carcinogen]: 100 MG/KG BW DEN ONCE, 20 MG/KG BW MNU ONCE ON DAYS 6,9, AND 12, 0.05% BBN IN DRINKING WATER FOR FIRST TWO WK, 40 MG/KG): 0/20 (0%), 2/20 (10%), 100%, not significant
- tumour outcome (control, treated, inhibition, significance) (Carcinogen: DIETHYLNITROSAMINE, 55-18-5, N-METHYL-N-NITRSOUREA, 684-93-5, N-BUTYL-N-(4-HYDROXYBUTYL)NITROSAMINE, 3817-11-6, 1,2-DIME, Carcinogen: DIETHYLNITROSAMINE, 55-18-5, N-METHYL-N-NITRSOUREA, 684-93-5, N-BUTYL-N-(4-HYDROXYBUTYL)NITROSAMINE, 3817-11-6, 1,2-DIME, 0.3% IN DIET FOR 23 WK BEGINNING 1 WK POST CARCINOGEN TREATMENT (STUDY DURATION :28 WK), Strain/Sex: F344/MALE, Target Tissue: Type of Lesion: LARGE INTESTINE: ADENOCARCINOMA, Dose [Carcinogen]: 100 MG/KG BW DEN ONCE, 20 MG/KG BW MNU ONCE ON DAYS 6,9, AND 12, 0.05% BBN IN DRINKING WATER FOR FIRST TWO WK, 40 MG/KG, Dose [Carcinogen]: 100 MG/KG BW DEN ONCE, 20 MG/KG BW MNU ONCE ON DAYS 6,9, AND 12, 0.05% BBN IN DRINKING WATER FOR FIRST TWO WK, 40 MG/KG): 2/20 (10%), 0/20 (0%), 100%, not significant
- tumour outcome (control, treated, inhibition, significance) (Carcinogen: DIMETHYLNITROSAMINE, 62-75-9, 0.6% IN DIET BEGINNING 2 WK POST CARCINOGEN DOSE AND CONTINUING FOR 26 WK (STUDY DURATION: 120 WK), Strain/Sex: WISTAR/MALE, Target Tissue: Type of Lesion: KIDNEY: ADENOCARCINOMA, Dose [Carcinogen]: 30 MG/KG ONCE): 12/30 (40%), 24/31 (77%), -93%, p<0.01
- tumour outcome (control, treated, inhibition, significance) (Carcinogen: DIMETHYLNITROSAMINE, 62-75-9, 0.6% IN DIET BEGINNING 2 WK POST CARCINOGEN DOSE AND CONTINUING FOR 26 WK (STUDY DURATION: 120 WK), Strain/Sex: WISTAR/MALE, Target Tissue: Type of Lesion: KIDNEY: ADENOMA, Dose [Carcinogen]: 30 MG/KG ONCE): 12/30 (40%), 17/31 (55%), -38%, not calculated
- tumour outcome (control, treated, inhibition, significance) (Carcinogen: DIMETHYLNITROSAMINE, 62-75-9, 0.6% IN DIET BEGINNING 2 WK POST CARCINOGEN DOSE AND CONTINUING FOR 26 WK (STUDY DURATION: 120 WK), Strain/Sex: WISTAR/MALE, Target Tissue: Type of Lesion: KIDNEY: EPITHELIAL TUMOR, Dose [Carcinogen]: 30 MG/KG ONCE): 19/30 (63%), 26/31 (84%), -33%, not calculated
- tumour outcome (control, treated, inhibition, significance) (Carcinogen: DIMETHYLNITROSAMINE, 62-75-9, 0.6% IN DIET BEGINNING 2 WK POST CARCINOGEN DOSE AND CONTINUING FOR 26 WK (STUDY DURATION: 120 WK), Strain/Sex: WISTAR/MALE, Target Tissue: Type of Lesion: KIDNEY: MESENCHYMAL TUMOR, Dose [Carcinogen]: 30 MG/KG ONCE): 14/30 (47%), 14/31 (45%), 4%, not significant
- tumour outcome (control, treated, inhibition, significance) (Carcinogen: DIMETHYLNITROSAMINE, 62-75-9, 0.6% IN DIET BEGINNING 2 WK POST CARCINOGEN DOSE AND CONTINUING FOR 26 WK (STUDY DURATION: 120 WK), Strain/Sex: WISTAR/MALE, Target Tissue: Type of Lesion: KIDNEY: TUMOR, Dose [Carcinogen]: 30 MG/KG ONCE): 26/30 (87%), 30/31 (97%), -11%, not significant
